In one experiment the test system is pigeon crop-sac. Kind of experiment: local crop-sac assay in the pigeon (prolactin / lactogenic activity). In kind it is in vivo. The settings on record: Table 10, mean ± SEM, number of birds in parentheses. Here is the method:
The growth-promoting activity of PL-HGH, the unpurified recombinant of Example 1 (fraction IV), [Cys(Cam)^53 -HGH-(1-134)], [Cys(Cam)^165, 182, 189 -HGH-(141-191)] and saline control were determined by the rat tibia test of Greenspan et al, Endocrinology 45, 455 (1949) and by the local crop-sac assay in the pigeon according to Lyons, Proc. Soc. Exp. Biol. 35, 645 (1937) and Nicoll, Endocrinology 80, 641 (1967). Amino acid compositions of acid and carboxypeptidase hydrolysates were determined in an automatic amino acid analyzer (model 120B, Beckman Instruments). For the analysis of tryptophan, the methanesulfonic acid hydrolysates were used. Amino-terminal residue and sequence analyses were preformed by the dansyl-Edman procedure. Isoelectric focusing was carried out in 8 M urea. Prolactin activity was estimated by the pigeon crop-sac assay. Microcomplement fixation experiments were performed with rabbit antisera to HCS. The gel-double-diffusion technique of Ouchterlony was done using 1% agar in 0.01 M phosphate buffer of pH 7.5. Exclusion chromatography of the purified fragments or the recombinant was performed on a Sephadex G-100 column (1.5×60 cm; V0 =35 ml) in 10 mM NH4 HCO3 (pH 8.4) at 21°. Circular dichroism (CD) spectra were obtained by a spectropolarimeter (Cary model 60) equipped with a circular dichroism attachment (model 6002). Microcomplement fixation was performed with the guinea pig antiserum to ovine prolactin. The gel double-diffusion technique of Ouchterlony was carried out with 1% agar in 10 mM phosphate buffer (pH 7.5). The prolactin activity was estimated by the local crop-sac assay in the pigeon.

For experiment [1] the following is noted: Birk and Li, Proc. Natl. Acad. Sci. U.S.A. 75(5), 2155 (1978); cited from earlier work.
The test system of the next experiment is antiserum to prolactin. Kind of experiment: gel double-diffusion technique of Ouchterlony. In kind it is binding. The protocol: (§1) Exclusion chromatography of the purified fragments or the recombinant was performed on a Sephadex G-100 column (1.5×60 cm; V0 =35 ml) in 10 mM NH4 HCO3 (pH 8.4) at 21°. Circular dichroism (CD) spectra were obtained by a spectropolarimeter (Cary model 60) equipped with a circular dichroism attachment (model 6002). Microcomplement fixation was performed with the guinea pig antiserum to ovine prolactin. The gel double-diffusion technique of Ouchterlony was carried out with 1% agar in 10 mM phosphate buffer (pH 7.5). The prolactin activity was estimated by the local crop-sac assay in the pigeon.

A short description of experiment [2]: conformational, immunological and biological activity of Example 8 and 9 recombinants compared with native hormone. To be noted: Examples 8 and 9, present tense, no data.
Experiment [3] has as its system guinea pig antiserum to ovine prolactin. Kind of experiment: microcomplement fixation. In kind it is binding. The settings on record: guinea pig antiserum to ovine prolactin at a dilution of 1:5000; 10 ng of the antigen. Here is the method:
as §1

No end group written: not given here.

On to “PRL-(1-53): NH2-terminal portion, residues 1-53, of ovine prolactin from fibrinolysin digestion (TPVCPNGPGNCQVSLRDLFDRAVMVSHYIHNLSSEMFNEFDKRYAQGKGFITM; ends and bridges not checked; cysteine pairing not given here; UniProt P01240 31-83, looked up, fragment)”, for which, in the experiment with pigeon crop-sac (total dose 120 μg), the “Response (dry mucosal weight)” value amounted to 10.1 ± 2.6 mg. The “biological activity, in words” value in experiment [1] was “inactive”. The precipitin line entry with antiserum to prolactin is “neither fragment gave a precipitin line”.

For the molecule “[Cys(Cam)^53 ]-HGH-(1-134)+(Lys^135,136,138, Glu^137,139, Nle^170, Ala^165,182,189)-HGH-(135-191)”, the “conformational, immunological and biological activity, in words” value in experiment [2] is “analogous conformational, immunological and biological activity as native HGH”.

B1: Prolactin: prolactin isolated from sheep pituitary glands (protein, UniProt P01240 31-229, looked up)
Prolactin: TPVCPNGPGNCQVSLRDLFDRAVMVSHYIHNLSSEMFNEFDKRYAQGKGFITMALNSCHTSSLPTPEDKEQAQQTHHEVLMSLILGLLRSWNDPLYHLVTEVRGMKGVPDAILSRAIEIEEENKRLLEGMEMIFGQVIPGAKETEPYPVWSGLPSLQTKDEDARHSAFYNLLHCLRRDSSKIDTYLKLLNCRIIYNNNC
Regarding B1, the results for the “Response (dry mucosal weight)” value in the experiment on pigeon crop-sac (total dose 2 μg) and with pigeon crop-sac (total dose 6 μg) were 20.5 ± 0.9 mg and 45.2 ± 3.1 mg, respectively. For the same molecule, in the experiment on antiserum to prolactin, the precipitin line entry is “single precipitin line”. In experiment [3], the complement fixed came out at 98%.

These data come from patent publication US4189426A, “Recombinant hormonal compositions and method” (Hoffmann-La Roche, Inc., priority 1978, dated 1980).
